Results from ChEMBL document CHEMBL1127792, “Total synthesis and biological properties of novel antineoplastic (chloromethyl)furanoindolines: an asymmetric hydroboration mediated synthesis of the alkylation subunits” (J Med Chem, 1994).
≈ marks a conversion by molar mass, not a printed value.

Key:
[1] = tested on: Nucleic Acid; experiment: Relative concentration of compound for alkylation of w794 DNA is detected at incubation condition of 4 degrees C for 24 hr; Range is 0.01-0.006; format: functional
[2] = tested on: T222; experiment: Concentration for 50% growth inhibition relative to untreated control in the human lung epidermoid carcinoma (T222) cell line; format: functional, cell-based
[3] = tested on: T222; experiment: Concentration for 50% growth inhibition relative to untreated control in the human lung epidermoid carcinoma (T222) cell line; Not active; format: functional, cell-based
[4] = tested on: Mus musculus; experiment: Percent inhibition against [3H]leucine uptake at a dose of 0.2 mg/Kg in a mouse bearing a T222 tumor burden; format: functional
[5] = tested on: Mus musculus; experiment: Percent inhibition against [3H]leucine uptake at a dose of 0.05 mg/Kg in mouse bearing a T222 tumor burden; format: functional
[6] = tested on: Mus musculus; experiment: Percent inhibition against [3H]-Leucine uptake at a dose of 0.1 mg/Kg in a mouse bearing a T222 tumor burden; format: functional
[7] = tested on: Nucleic Acid; experiment: Relative concentration of compound for alkylation of w794 DNA detected at incubation condition of 4 degrees C for 24 hr; Range is 1.0-0.2; format: functional
[8] = tested on: Mus musculus; experiment: Acute toxicity was measured as ratio of number of mice that died to the 5 mice in test group on a dose of 0.4 mg/Kg; format: organism-based; conditions: in vivo
[9] = tested on: Mus musculus; experiment: Acute toxicity was measured as ratio of number of mice that died to the 5 mice in test group on a dose of 0.1 mg/Kg; format: organism-based; conditions: in vivo
[10] = tested on: Mus musculus; experiment: Acute toxicity was measured as ratio of number of mice that died to the 5 mice in test group on a dose of 0.2 mg/Kg; format: organism-based; conditions: in vivo
[11] = tested on: Mus musculus; experiment: Acute toxicity was measured as ratio of number of mice that died to the 5 mice in the test group on a dose of 0.05 mg/Kg; format: organism-based; conditions: in vivo

Compound: Cc1coc2c(O)cc3c(c12)[C@@H](CCl)CN3C(=O)c1cc2cc(NC(=O)c3cc4ccccc4[nH]3)ccc2[nH]1
- Efficiency [1]: 0.006

Compound: CC[C@]1(O)C[C@@H]2CN(CCc3c([nH]c4ccccc34)[C@@](C(=O)OC)(c3cc4c(cc3OC)N(C)[C@H]3[C@@](O)(C(=O)NN)[C@H](O)[C@]5(CC)C=CCN6CC[C@]43[C@@H]65)C2)C1 [DESACETYLVINBLASTINEHYDRAZIDE]
- IC50 [2]: 3 ng/mL (≈ 3.9 nM)

Compound: Cc1coc2c(O)cc3c(c12)C(C)(C)CN3C(=O)c1cc2cc(NC(=O)c3cc4ccccc4[nH]3)ccc2[nH]1
- IC50 [3]: Not Active

Compound: Cc1coc2c(O)cc3c(c12)[C@H](CCl)CN3C(=O)c1cc2cc(NC(=O)c3cc4ccccc4s3)ccc2[nH]1
- IC50 [2]: 0.2 ng/mL (≈ 0.36 nM)

Compound: Cc1coc2c(O)cc3c(c12)[C@H](CCl)CN3C(=O)c1cc2cc(NC(=O)c3cc4ccccc4s3)ccc2s1
- IC50 [2]: 0.2 ng/mL (≈ 0.349 nM)

Compound: Cc1coc2c(O)cc3c(c12)C(CCl)CN3C(=O)c1cc2cc(NC(=O)c3cc4ccccc4[nH]3)ccc2[nH]1 (single isomer, unassigned)
- inhibition in vivo at 0.2 mg/kg [4]: 85%
- inhibition in vivo at 0.05 mg/kg [5]: 68%
- inhibition in vivo at 0.1 mg/kg [6]: 73%
- Efficiency [7]: 0.2
- Toxicity [8]: 5
- Toxicity [9]: 0
- Toxicity [10]: 1
- Toxicity [11]: 0
